Experiments:
steelheads [1] = assay: Feeding of steelheads: content and composition of the lipid in the internal organ; type: in vivo, Oncorhynchus, steelheads (rainbow trouts)
Procedure: (§1) Effects of ethyl docosahexaenoate and conjugated ethyl docosahexaenoate upon accumulation of the fat and the lipid composition were examined by feeding both ethyl esters to rainbow trouts.
(§2) Measuring conditions were as follows.
(§3) 1) Sample fish: Oncorhynchus, steelheads 3 months old after birth
(§4) 2) Farming condition: water temperature 10° C., each group 60 fishes
(§5) 3) Feed (fundamental feed: compounded feed for oriental trouts)
(§6) 1st group: fundamental feed +olive oil (5 wt %)
(§7) 2nd group: fundamental feed +olive oil (3 wt %) +ethyl docosahexaenoate (0.5 wt %)
(§8) 3rd group: fundamental feed +olive oil (4.5 wt %) +ethyl conjugated docosahexaenoate (0.5 wt %)
(§9) 4th group: fundamental feed +olive oil (3 wt %) +ethyl conjugated docosahexaenoate (2 wt %)
(§10) Conjugated ethyl docosahexaenoate used is obtained by isomerization of double bonds of ethyl docosahexaenoate in the presence of an alkali catalyst, and its composition consisted of 81.4% of conjugated ethyl docosahexaenoate and 18.6% of ethyl docosahexaenoate. More specifically, conjugated ethyl docosahexaenoate consisted of 57.4% of conjugated diene ester, 12.0% of conjugated triene ester, 12.0% of conjugated tetraene ester and 18.6% of ethyl docosahexaenoate. […]
(§11) Steelheads used, which were 3 months old after birth (average weight 0.82 g) and divided into four groups each consisting 60 steelheads, were farmed at a water temperature of about 10° C. for 21 weeks.
(§12) Effects of the feeds upon the internal organs and the lipid contents of the steelheads 21 weeks old after starting the farming were examined. The concrete lipid compositions in the internal organs are shown in Table 1, and the concrete lipid compositions in muscles shown in Table 2.

steelheads [2] = assay: Feeding of steelheads: content and composition of the lipid in muscles; type: in vivo, Oncorhynchus, steelheads (rainbow trouts)
Procedure: as §1, §2, §3, §4, §5, §6, §7, §8, §9, §10, §11, §12

[3] = 0.5 wt % in feed, farmed 21 weeks, water 10° C.
[4] = 2nd to 4th groups versus feed with neither ester

## CC/C=C\C/C=C\C/C=C\C/C=C\C/C=C\C/C=C\CCC(=O)OCC [ethyl docosahexaenoate]
Steelheads [1]; [3]
  Lipid composition (%) FFA, internal organ: 3.0%
  Lipid composition (%) PL, internal organ: 5.8%
  Lipid composition (%) SE, internal organ: 1.6%
  Lipid composition (%) TG, internal organ: 89.6%
  Lipid content (%) in the internal organ: 23.2%
Steelheads [1]; [4]
  lipid contents in the internal organs compared with 1st group (FIG. 1): lower lipid contents
Steelheads [2]; [3]
  Lipid composition (%) FFA, muscles: 1.7%
  Lipid composition (%) PL, muscles: 21.0%
  Lipid composition (%) SE, muscles: 0.7%
  Lipid composition (%) TG, muscles: 76.6%
  Lipid content (%) in muscles: 4.3%
Steelheads [2]; [4]
  lipid contents in the muscles compared with 1st group (FIG. 1): lower lipid contents

Source: patent US6555128B2, “Feeds containing docosahexaenoic acid and/or conjugated docosahexaenoic acid, and a method for farming fishes by using such feeds” (Hokkaido University, priority 2000, dated 2003)
